In US5925633A, “3-Substituted-4-oxa-1-azabicyclo [3,2,0]heptan-7-one as cysteine protease inhibitors” (Synphar Laboraties, Inc., priority 1996, dated 1999):

Tests used:
cathepsin B = cathepsin B (Rattus norvegicus, UniProt P00787); test: In vitro assay procedure for cathepsin B (inhibition); type: biochemical; conditions: rat cathepsin B, pH 5.1, 10 min incubation at room temperature, substrate N-CBZ-Phe-Arg-AMC; read-out: IC50 Cathepsin B
Procedure: The compounds of formula I were tested for inhibition of cathepsin B using the known method (A. J. Barret et al., Biochem. J. 1982, 201, 189-198). […] After 10 min of incubation at room temperature, a 20 μl of 5 mM substrate (N-CBZ-Phe-Arg-AMC, dissolved in DMSO) was added to initiate reaction. Reading is followed up for 10 min at the fluoroscan reader (excitation at 380 nm, emission at 460 nm).

papain = target: T1, papain (Carica papaya, UniProt P00784); test: In vitro assay procedure for papain (inhibition); type: biochemical; conditions: pH 6.5, 10 min incubation at room temperature, substrate N-CBZ-Pro-Phe-Arg-pNA; read-out: IC50 Papain
T1 sequence (P00784 134-345): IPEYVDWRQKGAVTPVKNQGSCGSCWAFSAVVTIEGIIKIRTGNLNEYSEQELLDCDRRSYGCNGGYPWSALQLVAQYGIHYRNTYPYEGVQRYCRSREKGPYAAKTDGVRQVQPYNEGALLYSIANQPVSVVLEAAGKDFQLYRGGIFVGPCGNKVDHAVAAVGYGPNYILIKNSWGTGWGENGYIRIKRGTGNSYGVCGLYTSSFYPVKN
Procedure: To a 170 μl of enzyme-buffer mixture (enzyme: papain, diluted to give 30 mOD/min, buffer: 0.2 M potassium phosphate, 1.0 mM EDTA, 5 mM L-Cysteine, pH 6.5) a 10 μL of inhibitor (dissolved in DMSO) was added. After 10 min of incubation at room temperature, a 20 μl of 10 mM substrate (N-CBZ-Pro-Phe-Arg-pNA, dissolved in DMSO) was added to initiate reaction. Reading is followed up for 3 min at the Thermomax plate reader (absorbance at 405 nm)
A plot of percentage of inhibition vs inhibitor concentration is obtained, and IC50 is determined using a linear regression calculations (concentration of inhibitor which will give 50% inhibition).

Sequence of cathepsin B (P00787 80-339): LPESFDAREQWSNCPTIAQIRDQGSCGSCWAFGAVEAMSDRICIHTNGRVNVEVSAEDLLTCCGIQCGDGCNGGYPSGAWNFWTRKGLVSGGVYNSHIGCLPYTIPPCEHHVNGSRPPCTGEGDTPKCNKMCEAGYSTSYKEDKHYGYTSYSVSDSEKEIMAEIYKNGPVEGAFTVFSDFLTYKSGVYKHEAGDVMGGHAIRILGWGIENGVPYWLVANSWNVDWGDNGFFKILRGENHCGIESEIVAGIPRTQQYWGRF

| Compound | IC50 (cathepsin B) [µM] | IC50 (papain) [nM] |
| --- | --- | --- |
| COc1ccc(C(=O)NCC2CN3C(=O)CC3O2)cc1 (stereo not shown) [Example 68] | 3.6 | 720 |
| O=C(NC(CO)C(=O)OCC1CN2C(=O)CC2O1)OCc1ccccc1 (stereo not shown) [Example 69] | 2.7 | 1500 |
| O=C(CNC(=O)OCc1ccccc1)NCC(=O)OCC1CN2C(=O)CC2O1 (stereo not shown) [Example 70] | 6.7 | 350 |
| O=C(NC(c1ccccc1)C(O)C(=O)OCC1CN2C(=O)CC2O1)c1ccccc1 (stereo not shown) [Example 71] | 0.24 | 240 |
| O=C1CC(OCC2CN3C(=O)CC3O2)N1 (stereo not shown) [Example 73] | 4.7 | 2400 |
| O=C(CCCCCCn1ccnn1)NCC1CN2C(=O)CC2O1 (stereo not shown) [Example 74] | 6.5 | 3300 |
| O=C(NCC1CN2C(=O)CC2O1)C1CCCCC1 (stereo not shown) [Example 75] | 0.36 | 3970 |
| O=C(O)C1CCCCC1C(=O)OCC1CN2C(=O)CC2O1 (stereo not shown) [Example 76] | 0.34 | 10900 |
